According to US6916803B2, “3-(Heteroaryl acetamido)-2-oxo-azetidine-1-sulfonic acids derivatives as antibacterial agents” (Pantherix, Ltd., priority 2000, dated 2005):
In brackets after ≈: the same amount, converted by molar mass. Like-named read-outs stand apart in the source and are kept apart here.

Legend:
Assay in all cases: MIC, standard microbroth dilution method (NCCLS)
Format in all cases: cell-based
C. freundii K 500 = details: Citrobacter freundii, K500
Procedure: (§1) The compounds of the present invention were tested for minimum inhibitory concentration (MIC) against the bacteria listed in Table-1 according to the standard microbroth dilution method as described in NCCLS document. The minimum inhibitory concentration is expressed in μg/ml.

E. cloaacae S 480-2 = test system: E. cloaacae S 480-2
Procedure: as §1

E. coli TEM-2 = details: Escherichia coli, TEM2
Procedure: as §1

K pneumoniae K-1150 = test system: K pneumoniae K-1150
Procedure: as §1

M Morganii K 1250 = test system: M Morganii K 1250
Procedure: as §1

P. aeruginosa CL 1267 = details: Pseudomonas aeruginosa, CL1267
Procedure: as §1

P. aeruginosa PD 2721 = details: Pseudomonas aeruginosa, PD2721
Procedure: as §1

P. aeruginosa S 1598 = details: Pseudomonas aeruginosa, S1598
Procedure: as §1

Row | MIC (E. coli TEM-2; E. coli TEM-2, read-out: MIC) | SMILES | MIC (C. freundii K 500) | MIC (E. cloaacae S 480-2) | MIC (E. coli TEM-2) | MIC (K pneumoniae K-1150) | MIC (M Morganii K 1250) | MIC (P. aeruginosa CL 1267) | MIC (P. aeruginosa PD 2721) | MIC (P. aeruginosa S 1598)
1 | – | Nc1nc(/C(=N/OCc2cc(=O)c(O)cn2O)C(=O)NC2C(=O)N(S(=O)(=O)[O-])C2CF)cs1.[Na+] (stereo not drawn) [Example 3, 3-[2-(2-Aminothiazol-4-yl)-(Z)-2-{(1,5-dihydroxy-4-pyridon-2-yl-methoxy)imino}-acetamido]-4-fluoromethyl-2-azetidinone-1-sulfonic acid, sodium salt] | 0.5 µg/mL | 2 µg/mL | 0.06 µg/mL | 0.06 µg/mL | 0.06 µg/mL | 0.06 µg/mL | 32 µg/mL | 0.13 µg/mL
2 | – | NC(=O)OCC1C(NC(=O)/C(=N\OCc2cc(=O)c(O)cn2O)c2csc(N)n2)C(=O)N1S(=O)(=O)[O-].[Na+] (stereo not drawn) [Example 2, 3-[2-(2-Aminothiazol-4-yl)-(Z)-2-{(1,5-dihydroxy-4-pyridon-2-ylmethoxy)imino}-acetamido]-4-carbamoyloxymethyl-2-azetidinone-1-sulfonic acid, sodium salt] | 0.5 µg/mL | 0.25 µg/mL | 0.06 µg/mL | 0.06 µg/mL | 0.13 µg/mL | 0.06 µg/mL | 128 µg/mL | 0.13 µg/mL
3 | 0.06 µg/mL (≈ 0.129 µM) | NC(=O)OC[C@@H]1[C@H](NC(=O)/C(=N\OCC(=O)O)c2csc(N)n2)C(=O)N1S(=O)(=O)O [Carumonam, reference compound] | 0.06 µg/mL (≈ 0.129 µM) | 0.06 µg/mL (≈ 0.129 µM) | – | 0.06 µg/mL (≈ 0.129 µM) | 0.06 µg/mL (≈ 0.129 µM) | 8 µg/mL (≈ 17.2 µM) | 32 µg/mL (≈ 68.6 µM) | 8 µg/mL (≈ 17.2 µM)
4 | 0.06 µg/mL (≈ 0.138 µM) | C[C@H]1[C@H](NC(=O)/C(=N\OC(C)(C)C(=O)O)c2csc(N)n2)C(=O)N1S(=O)(=O)O [Aztreonam, reference compound] | 0.13 µg/mL (≈ 0.299 µM) | 0.13 µg/mL (≈ 0.299 µM) | – | 0.06 µg/mL (≈ 0.138 µM) | 0.06 µg/mL (≈ 0.138 µM) | – | 64 µg/mL (≈ 147 µM) | 32 µg/mL (≈ 73.5 µM)
5 | – | C[C@H]1[C@H](NC(=O)/C(=N\OCc2cc(=O)c(O)cn2O)c2csc(N)n2)C(=O)N1S(=O)(=O)[O-].[Na+] [Example 1] | 0.13 µg/mL | 0.06 µg/mL | 0.06 µg/mL | 0.13 µg/mL | 0.06 µg/mL | 0.06 µg/mL | 4 µg/mL | 0.13 µg/mL
